According to patent publication US9814714B2, “Kinase modulation, and indications therefor” (Plexxikon Inc., priority 2015, dated 2017):
Like-named read-outs stand apart in the source and are kept apart here.

Experiments:
COLO205 cells = test: Growth inhibition assay (CellTiter-Glo), COLO205; type: cell-based; conditions: Homo sapiens
Description: Cells were incubated overnight at 37° C.
2. […] The maximum concentration was about 5 mM.

COLO829 cells = test: Growth inhibition assay (CellTiter-Glo), COLO829; type: cell-based; conditions: Homo sapiens
Description: (§1) Growth inhibition assay: Cells were plated into a 96-well plate at a density of 3000 cells per well and allowed to adhere overnight. Compounds were dissolved in DMSO, diluted 3-fold to create an 8-point titration and added to cells. After a 72-hour incubation, cell viability was examined using CellTiter-Glo® (Promega).
(§2) In order to determine the effects of Formula I on proliferation, a growth assay was established using melanoma cells (A375 and COLO829) and colorectal carcinoma cells (COLO205, HT-29) which each express the BRAFV600E mutation. To show selectivity over wild-type BRAF, several BRAF wild-type cell lines (K562, NOMO-1, MV-4-11 and ML-2) were also examined in the growth assay. The growth assay implemented the Promega CellTiter-Glo Luminescent Cell viability assay, which gives a luminescent readout that is proportional to the amount of ATP present in a cell sample. As ATP levels directly correlate with the number of viable cells, the luminescent signal can be used to determine the potency of Formula I to block the proliferation of the cell lines of interest.
(§3) 1. 3,000 cells were plated in each well for cell lines A375, COLO205, COLO829, HT-29, and SK-MEL-3. 25,000 cells were plated in each well for cell lines K562, ML-2, MV-4-11, and
(§4) NOMO-1 of a 96-well tissue-culture-treated plate (Corning #3610) in a 50 μL volume. Cells were incubated overnight at 37° C.
(§5) 2. Each test compound was plated as an 8-point titration, using 1:3 dilutions in DMSO. The maximum concentration was about 5 mM. Dilute DMSO and test compound of Formula I 1:250 in growth media.
(§6) 3. 50 μL of the diluted compound was transferred into 50 μL cells, for a 500-fold final compound dilution (maximum concentration is typically 10 μM and DMSO concentration is 0.2%). The cells were incubated with DMSO/compound for 3 days at 37° C. in 5% CO2.
(§7) 4. Cell Titer-Glo Luminescent Assay Reagent was brought to room temperature and reconstituted as directed in the product manual. The cell cultures were also brought to room temperature for about 20-30 minutes. […] Luminescence was measured on a Tecan Safire plate reader. […]

[1] = system: pERK in IPC-298 cells (NRAS^Q61L); test: Phospho-ERK AlphaScreen assay, pERK activation in IPC-298; type: cell-based, human; conditions: for EC50: Homo sapiens
Description: (§8) Phospho-ERK AlphaScreen® assay: The degree of ERK phosphorylation was determined using an AlphaScreen® assay where an increase in ERK1/2 phosphorylation at Thr202/Tyr204 brought the donor and acceptor AlphaScreen® beads into close proximity, generating a signal for quantification. To determine the effects of compound treatment on phosphorylation of ERK1/2, cells were plated in a 96-well plate and treated with an 8-point titration of compound for one hour at 37° C. before lysis. To detect pERK, cell lysates were incubated with streptavidin-coated AlphaScreen® donor beads, anti-mouse IgG AlphaScreen® acceptor beads, a biotinylated anti-ERK1/2 rabbit antibody, and a mouse antibody that recognizes ERK1/2 only when it is phosphorylated on Thr202 and Tyr204. The biotinylated ERK1/2 antibody binds to both the streptavidin-coated AlphaScreen® donor beads and to ERK1/2 (regardless of its phosphorylation state), and the phospho-ERK1/2 antibody binds to the acceptor beads and to ERK1/2 that is phosphorylated at Thr202/Tyr204. An increase in ERK1/2 phosphorylation at Thr202/Tyr204 brings the donor and acceptor AlphaScreen® beads into close proximity, generating a signal that can be quantified on an EnVision reader (Perkin Elmer).
(§9) Using AlphaScreen® technology, the ability of Formula I to affect the phosphorylation of ERK and MEK in the cells was measured quantitatively. Following treatment with compound, the cells were lysed, and a sample of the lysate was transferred to an assay plate. The lysate was mixed with antibodies directed against total ERK/MEK, antibodies that recognize specific phosphorylation sites on ERK/MEK, AlphaScreen® anti-mouse IgG Acceptor beads, and Streptavidin Donor beads. Upon excitation of the donor beads with laser light at 680 nm, singlet oxygen was produced. This singlet oxygen was rapidly quenched, unless the AlphaScreen® Acceptor beads were in close proximity, in which case a proximity signal can be measured at 580 nm. In the presence of phosphorylated ERK/MEK, there is a very strong proximity signal.
(§10) 1. One day before the assay, 50,000 cells were plated in each well of a 96-well tissue-culture-treated plate (Corning #3610) in a 50 μL volume. Cells were incubated at 37° C. overnight.
(§11) 2. Compounds were diluted in DMSO to 500× final concentration. Each compound was plated as an 8-point titration, using 1:3 dilutions in DMSO. The maximum concentration was about 5 mM.
(§12) 3. 1 μl of compound was added to each well of a 96-well polypropylene plate (Corning #3363). For A375, COLO829, SK-MEL-3, HCT116, and HT-29, the high control was DMSO, and the low control was 10 μM PLX4720 (CAS No. 918505-84-7). For B9 and IPC-298, the high control was 3.33 μM PLX4720, and the low control was DMSO. 4. 249 μL growth media was added to compounds, diluting them 250-fold. 5. […] The compound was incubated with the cells at 37° C. for one hour. 6. The media was aspirated, and the cells were lysed in 50 μL of ice-cold 1× Cell Lysis buffer. The plates were incubated on ice for 5 minutes to allow complete lysis of the cells. 7. A mixture of biotinylated donor antibody, acceptor antibody, and anti-mouse IgG AlphaScreen® acceptor beads in 1× AlphaLISA immunoassay buffer was prepared. 8. 5 μL of lysate was transferred to a 384-well assay plate (Perkin Elmer #6005359). 5 μL of the antibody and acceptor bead mixture was added. The plates were spinned.

A375 cells = test: Growth inhibition assay (CellTiter-Glo), A375; type: cell-based; conditions: Homo sapiens
Description: as §1, §2, §3, §4, §5, §6, §7

[2] = system: pERK in A375 cells (BRAF^V600E, homozygous); test: Phospho-ERK AlphaScreen assay, pERK inhibition in A375; type: cell-based; conditions: Homo sapiens, A-375, 1 h, read-out: pERK inhibition IC50 A375
Description: as §8, §9, §10, §11, §12

[3] = IPC-298, read-out: pERK activation Mean EC50, IPC-298
[4] = IPC-298, NRAS^Q61L, concentration increasing pERK to 50% compared to positive control 10 μM PLX4720, read-out: pERK activation EC50 IPC298
[5] = COLO 205, 72-hour incubation, read-out: In vitro growth inhibition IC50, COLO205
[6] = COLO-829, 72-hour incubation, read-out: In vitro growth inhibition IC50, COLO829
[7] = A-375, 72-hour incubation, read-out: In vitro growth inhibition IC50, A375
[8] = A375, BRAF^V600E homozygous, one hour treatment

EC50 [1, 4] | IC50 (COLO205 cells; [5]) | IC50 (COLO829 cells; [6]) | IC50 (A375 cells; [7]) | IC50 [2, 8] | Structure (SMILES) | IC50 (COLO205 cells; COLO 205, 72 h, Table 4, colorectal adenocarcinoma, BRAF V600E/WT, RAS WT, 3 days, read-out: Growth IC50 Colo205) | IC50 (COLO829 cells; COLO-829, 72 h, Table 4, melanoma, BRAF V600E/WT, RAS WT, 3 days, read-out: Growth IC50 Colo829) | EC50 [1, 3] | IC50 (A375 cells; A-375, 72 h, Table 4, melanoma, BRAF V600E, RAS WT, 3 days, read-out: Growth IC50 A375) | IC50 [2] | MAPK signaling / pERK increase in IPC-298 (in words) ([1]; FIG. 1(B), NRAS^Q61L)
> 200000 nM | 160 nM | 530 nM | 170 nM | 3.5 nM | CCN(C)S(=O)(=O)Nc1ccc(F)c(C(=O)c2c[nH]c3ncc(-c4cnc(C5CC5)nc4)cc23)c1F [Formula II, 5-(2-cyclopropylpyrimidin-5-yl)-3-[3-[[ethyl(methyl)sulfamoyl]amino]-2,6-difluoro-benzoyl]-1H-pyrrolo[2,3-b]pyridine] |  |  |  |  |  | negligible pERK increase
540 nM | 250 nM | 690 nM | 330 nM | 32 nM | CCCS(=O)(=O)Nc1ccc(F)c(C(=O)c2c[nH]c3ncc(-c4ccc(Cl)cc4)cc23)c1F [Vemurafenib, vemurafenib, reference compound] |  |  | 840 nM |  |  | 

Structure (SMILES) | EC50 [1, 4] | IC50 (COLO205 cells; [5]) | IC50 (COLO829 cells; [6]) | IC50 (A375 cells; [7]) | IC50 [2, 8] | IC50 (COLO205 cells; COLO 205, 72 h, Table 4, colorectal adenocarcinoma, BRAF V600E/WT, RAS WT, 3 days, read-out: Growth IC50 Colo205) | IC50 (COLO829 cells; COLO-829, 72 h, Table 4, melanoma, BRAF V600E/WT, RAS WT, 3 days, read-out: Growth IC50 Colo829) | EC50 [1, 3] | IC50 (A375 cells; A-375, 72 h, Table 4, melanoma, BRAF V600E, RAS WT, 3 days, read-out: Growth IC50 A375) | IC50 [2] | MAPK signaling / pERK increase in IPC-298 (in words) ([1]; FIG. 1(B), NRAS^Q61L)
O=C(c1c(F)ccc(NS(=O)(=O)N2CC[C@@H](F)C2)c1F)c1c[nH]c2ncc(-c3cnc(C4CC4)nc3)cc12 [Formula I, (3R)—N-[3-[5-(2-cyclopropylpyrimidin-5-yl)-1H-pyrrolo[2,3-b]pyridine-3-carbonyl]-2,4-difluorophenyl]-3-fluoropyrrolidine-1-sulfonamide] | > 200000 nM |  |  |  |  | 10 nM | 100 nM | 10000 nM | 50 nM | 16 nM | 
